# Where a name gives a salt, the structure may show the parent alone. Read-outs that look alike come from different tables or passages of the source.
# Columns and labels:
# Assay in all cases: AK assay 384-well format, Prestwick library screening
# [1] = tested on: A. baumannii strain 98-37-09; assay type: cell-based, Acinetobacter baumannii; conditions: 50 μM final drug concentration; for fold induction at 50 µM: Acinetobacter baumannii, 983709, 3 h
# P. aeruginosa = assay type: cell-based, Pseudomonas aeruginosa; conditions: 50 μM final drug concentration; for fold induction at 50 µM: Pseudomonas aeruginosa, 3 h
# [2] = tested on: S. aureus strain USA300-0114; assay type: cell-based, Staphylococcus aureus; conditions: 50 μM final drug concentration; for fold induction at 50 µM: Staphylococcus aureus, USA300, 3 h
# E. faecium = assay type: cell-based, Enterococcus faecium; conditions: 50 μM final drug concentration; for fold induction at 50 µM: Enterococcus faecium, 3 h
# K. pneumoniae = assay type: cell-based, Klebsiella pneumoniae; conditions: 50 μM final drug concentration; for fold induction at 50 µM: Klebsiella pneumoniae, 3 h
# E. coli = assay type: cell-based, Escherichia coli; conditions: 50 μM final drug concentration; for fold induction at 50 µM: Escherichia coli, 3 h
# E. cloacae = assay type: cell-based, Enterobacter cloacae; conditions: 50 μM final drug concentration; for fold induction at 50 µM: Enterobacter cloacae, 3 h
# [3] = planktonic A. baumannii, cutoff for positive-scoring molecules 3-fold increase, read-out: AK-based Prestwick Library Screening Results, A. baumannii (increase in extracellular AK activity)
# [4] = planktonic P. aeruginosa, cutoff for positive-scoring molecules 3-fold increase, read-out: AK-based Prestwick Library Screening Results, P. aeruginosa (increase in extracellular AK activity)
# [5] = planktonic S. aureus, cutoff for positive-scoring molecules 3-fold increase, read-out: AK-based Prestwick Library Screening Results, S. aureus (increase in extracellular AK activity)
# [6] = planktonic E. faecium, cutoff for positive-scoring molecules 3-fold increase, read-out: AK-based Prestwick Library Screening Results, E. faecium (increase in extracellular AK activity)
# [7] = planktonic K. pneumoniae, cutoff for positive-scoring molecules 3-fold increase, read-out: AK-based Prestwick Library Screening Results, K. pneumoniae (increase in extracellular AK activity)
# [8] = planktonic E. coli, cutoff for positive-scoring molecules 3-fold increase, read-out: AK-based Prestwick Library Screening Results, E. coli (increase in extracellular AK activity)
# [9] = planktonic E. cloacae, cutoff for positive-scoring molecules 3-fold increase, read-out: AK-based Prestwick Library Screening Results, E. cloacae (increase in extracellular AK activity)
# [10] = planktonic A. baumannii, 384-well, cutoff for positive-scoring molecules 3-fold increase, read-out: AK-based Prestwick Library Screening Results: A. baumannii (increase in extracellular AK activity)
# [11] = planktonic P. aeruginosa, 384-well, cutoff for positive-scoring molecules 3-fold increase, read-out: AK-based Prestwick Library Screening Results: P. aeruginosa (increase in extracellular AK activity)
# [12] = planktonic S. aureus, 384-well, cutoff for positive-scoring molecules 3-fold increase, read-out: AK-based Prestwick Library Screening Results: S. aureus (increase in extracellular AK activity)
# [13] = planktonic E. faecium, 384-well, cutoff for positive-scoring molecules 3-fold increase, read-out: AK-based Prestwick Library Screening Results: E. faecium (increase in extracellular AK activity)
# [14] = planktonic K. pneumoniae, 384-well, cutoff for positive-scoring molecules 3-fold increase, read-out: AK-based Prestwick Library Screening Results: K. pneumoniae (increase in extracellular AK activity)
# [15] = planktonic E. cloacae, 384-well, cutoff for positive-scoring molecules 3-fold increase, read-out: AK-based Prestwick Library Screening Results: E. cloacae (increase in extracellular AK activity)
compound,measurement,setting,value
C=CC(N)CCC(=O)O (stereo not drawn) [Vigabatrin],fold induction at 50 µM,[1]; [3],1.1
same,fold induction at 50 µM,P. aeruginosa; [4],0.9
same,fold induction at 50 µM,[2]; [5],0.7
same,fold induction at 50 µM,E. faecium; [6],0.9
same,fold induction at 50 µM,K. pneumoniae; [7],0.8
same,fold induction at 50 µM,E. coli; [8],1
same,fold induction at 50 µM,E. cloacae; [9],0.8
Nc1cc(C(Cl)=C(Cl)Cl)c(S(N)(=O)=O)cc1S(N)(=O)=O [Clorsulon],fold induction at 50 µM,"[1]; planktonic, cutoff for positive 3-fold increase, read-out: AK-based Prestwick Library Screening Results, A. baumannii (fold increase in extracellular AK activity)",1
same,fold induction at 50 µM,"P. aeruginosa; planktonic, cutoff for positive 3-fold increase, read-out: AK-based Prestwick Library Screening Results, P. aeruginosa (fold increase in extracellular AK activity)",1.1
same,fold induction at 50 µM,"[2]; planktonic, cutoff for positive 3-fold increase, read-out: AK-based Prestwick Library Screening Results, S. aureus (fold increase in extracellular AK activity)",1.5
same,fold induction at 50 µM,"E. faecium; planktonic, cutoff for positive 3-fold increase, read-out: AK-based Prestwick Library Screening Results, E. faecium (fold increase in extracellular AK activity)",1.4
same,fold induction at 50 µM,"K. pneumoniae; planktonic, cutoff for positive 3-fold increase, read-out: AK-based Prestwick Library Screening Results, K. pneumoniae (fold increase in extracellular AK activity)",1
same,fold induction at 50 µM,"E. coli; planktonic, cutoff for positive 3-fold increase, read-out: AK-based Prestwick Library Screening Results, E. coli (fold increase in extracellular AK activity)",1
same,fold induction at 50 µM,"E. cloacae; planktonic, cutoff for positive 3-fold increase, read-out: AK-based Prestwick Library Screening Results, E. cloacae (fold increase in extracellular AK activity)",1.7
COc1ccc2c(c1)c(CC(=O)O)c(C)n2C(=O)c1ccc(Cl)cc1 [Indomethacin],fold induction at 50 µM,"[1]; 384-well format, cutoff for positive-scoring molecules 3-fold increase, read-out: AK-based Prestwick Library Screening Results, A. baumannii (increase in extracellular AK activity)",1
same,fold induction at 50 µM,"P. aeruginosa; 384-well format, cutoff for positive-scoring molecules 3-fold increase, read-out: AK-based Prestwick Library Screening Results, P. aeruginosa (increase in extracellular AK activity)",0.9
same,fold induction at 50 µM,"[2]; 384-well format, cutoff for positive-scoring molecules 3-fold increase, read-out: AK-based Prestwick Library Screening Results, S. aureus (increase in extracellular AK activity)",0.6
same,fold induction at 50 µM,"E. faecium; 384-well format, cutoff for positive-scoring molecules 3-fold increase, read-out: AK-based Prestwick Library Screening Results, E. faecium (increase in extracellular AK activity)",0.9
same,fold induction at 50 µM,"K. pneumoniae; 384-well format, cutoff for positive-scoring molecules 3-fold increase, read-out: AK-based Prestwick Library Screening Results, K. pneumoniae (increase in extracellular AK activity)",0.8
same,fold induction at 50 µM,"E. coli; 384-well format, cutoff for positive-scoring molecules 3-fold increase, read-out: AK-based Prestwick Library Screening Results, E. coli (increase in extracellular AK activity)",0.9
same,fold induction at 50 µM,"E. cloacae; 384-well format, cutoff for positive-scoring molecules 3-fold increase, read-out: AK-based Prestwick Library Screening Results, E. cloacae (increase in extracellular AK activity)",1.2
COc1ccc2c(c1)[C@]13CCCC[C@@H]1[C@H](C2)N(C)CC3,fold induction at 50 µM,"[1]; planktonic A. baumannii, […], read-out: AK-based Prestwick Library Screening Results, A. baumannii (increase in extracellular AK activity)",0.8
same,fold induction at 50 µM,"P. aeruginosa; planktonic P. aeruginosa, […], read-out: AK-based Prestwick Library Screening Results, P. aeruginosa (increase in extracellular AK activity)",0.8
same,fold induction at 50 µM,"[2]; planktonic S. aureus, […], read-out: AK-based Prestwick Library Screening Results, S. aureus (increase in extracellular AK activity)",0.7
same,fold induction at 50 µM,"E. faecium; planktonic E. faecium, […], read-out: AK-based Prestwick Library Screening Results, E. faecium (increase in extracellular AK activity)",0.9
same,fold induction at 50 µM,"K. pneumoniae; planktonic K. pneumoniae, […], read-out: AK-based Prestwick Library Screening Results, K. pneumoniae (increase in extracellular AK activity)",0.7
same,fold induction at 50 µM,"E. coli; planktonic E. coli, […], read-out: AK-based Prestwick Library Screening Results, E. coli (increase in extracellular AK activity)",0.8
same,fold induction at 50 µM,"E. cloacae; planktonic E. cloacae, […], read-out: AK-based Prestwick Library Screening Results, E. cloacae (increase in extracellular AK activity)",1.1
CC(=O)O[C@H]1C(=O)[C@@]2(C)[C@H]([C@H](OC(=O)c3ccccc3)[C@]3(O)C[C@H](OC(=O)[C@H](O)[C@@H](NC(=O)c4ccccc4)c4ccccc4)C(C)=C1C3(C)C)[C@]1(OC(C)=O)CO[C@@H]1C[C@@H]2O [Paclitaxel],fold induction at 50 µM,[1]; [10],1.3
same,fold induction at 50 µM,P. aeruginosa; [11],1
same,fold induction at 50 µM,[2]; [12],1
same,fold induction at 50 µM,E. faecium; [13],1
same,fold induction at 50 µM,K. pneumoniae; [14],1
same,fold induction at 50 µM,"E. coli; planktonic E. coli, 384-well, […], read-out: AK-based Prestwick Library Screening Results: E. coli (increase in extracellular AK activity)",1.1
same,fold induction at 50 µM,E. cloacae; [15],1.6
Cc1cc(-c2ccccc2)nnc1NCCN1CCOCC1 [Minaprine dihydrochloride],fold induction at 50 µM,[1]; [10],1.3
same,fold induction at 50 µM,P. aeruginosa; [11],1.1
same,fold induction at 50 µM,[2]; [12],1
same,fold induction at 50 µM,E. faecium; [13],0.8
same,fold induction at 50 µM,K. pneumoniae; [14],0.9
same,fold induction at 50 µM,"E. coli; planktonic E. coli, 384-well, cutoff for positive-scoring molecules 3-fold increase, read-out: AK-based Prestwick Library Screening Results: E. coli (increase in extracellular AK activity)",1.3
same,fold induction at 50 µM,E. cloacae; [15],1.3
Mephentermine hemisulfate,"AK-based Prestwick Library Screening Results, A. baumannii (fold increase in extracellular AK activity)","[1]; planktonic, […]",0.4
same,"AK-based Prestwick Library Screening Results, P. aeruginosa (fold increase in extracellular AK activity)","P. aeruginosa; planktonic, […]",0.4
same,"AK-based Prestwick Library Screening Results, S. aureus (fold increase in extracellular AK activity)","[2]; planktonic, […]",0.4
same,"AK-based Prestwick Library Screening Results, E. faecium (fold increase in extracellular AK activity)","E. faecium; planktonic, […]",0.8
same,"AK-based Prestwick Library Screening Results, K. pneumoniae (fold increase in extracellular AK activity)","K. pneumoniae; planktonic, […]",0.5
same,"AK-based Prestwick Library Screening Results, E. coli (fold increase in extracellular AK activity)","E. coli; planktonic, […]",0.5
same,"AK-based Prestwick Library Screening Results, E. cloacae (fold increase in extracellular AK activity)","E. cloacae; planktonic, […]",0.4
CN1CCCC(CC2c3ccccc3Sc3ccccc32)C1 (stereo not drawn) [Metixene hydrochloride],fold induction at 50 µM,[1]; [3],1
same,fold induction at 50 µM,P. aeruginosa; [4],0.8
same,fold induction at 50 µM,[2]; [5],0.7
same,fold induction at 50 µM,E. faecium; [6],1
same,fold induction at 50 µM,K. pneumoniae; [7],0.8
same,fold induction at 50 µM,E. coli; [8],0.9
same,fold induction at 50 µM,E. cloacae; [9],0.8
Cc1c(Nc2ncccc2C(=O)O)cccc1C(F)(F)F [Flunixin meglumine],fold induction at 50 µM,"[1]; planktonic, […], read-out: AK-based Prestwick Library Screening Results, A. baumannii (fold increase in extracellular AK activity)",0.5
same,fold induction at 50 µM,"P. aeruginosa; planktonic, […], read-out: AK-based Prestwick Library Screening Results, P. aeruginosa (fold increase in extracellular AK activity)",0.6
same,fold induction at 50 µM,"[2]; planktonic, […], read-out: AK-based Prestwick Library Screening Results, S. aureus (fold increase in extracellular AK activity)",0.5
same,fold induction at 50 µM,"E. faecium; planktonic, […], read-out: AK-based Prestwick Library Screening Results, E. faecium (fold increase in extracellular AK activity)",0.6
same,fold induction at 50 µM,"K. pneumoniae; planktonic, […], read-out: AK-based Prestwick Library Screening Results, K. pneumoniae (fold increase in extracellular AK activity)",0.5
same,fold induction at 50 µM,"E. coli; planktonic, […], read-out: AK-based Prestwick Library Screening Results, E. coli (fold increase in extracellular AK activity)",0.6
same,fold induction at 50 µM,"E. cloacae; planktonic, […], read-out: AK-based Prestwick Library Screening Results, E. cloacae (fold increase in extracellular AK activity)",1

# Reference: patent US10004701B2, “Methods and compositions for treating infection” (UNIVERSITY OF ROCHESTER, priority 2012, dated 2018)
